The text below walks through data of US9499550B2 (BRISTOL-MYERS SQUIBB COMPANY, priority 2012, dated 2016).

The test system of test [1] is HCV genotype 1a (H77 strain) replicon in HUH-7 cells. The experiment in a line: HCV replicon luciferase reporter assay, genotype 1a. To be noted: Hepatitis C virus, Huh-7, 72 h, HCV genotype 1a replicon luciferase, 3 days incubation, read-out: LE_1a (EC50, range). Type of test: cell-based. The essentials: (§1)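 Replicon inhibition for both genotypes was measured as Renilla luciferase signal (EnduRen, 7.5 μM final, 2 h) after 3-day, 37° C exposure of replicon-bearing HUH-7 cells in 4% FCS DMEM, 0.5% DMSO. The 1b construct carries S1179I; the 1a H77 construct carries P1496L and S2204I. Twenty-point, 3-fold dilutions were fitted four-parametrically for EC50, and CC50 was taken from multiplexed Cell Titer-Blue.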

Test [2] concerns HCV genotype 1b (Con1) replicon in HUH-7 cells. In words: HCV replicon luciferase reporter assay, genotype 1b. It counts as cell-based. To be noted: Hepatitis C virus, Huh-7, 72 h, HCV genotype 1b replicon luciferase, 3 days incubation, read-out: LE_1b (EC50, range). The essentials: as §1

For the molecule `CC[C@@H]1C[C@H](C)CC/C=C\[C@@H]2C[C@@]2(C(=O)NS(=O)(=O)C2(C)CC2)NC(=O)[C@@H]2C[C@@H](Oc3nccc4c5c(ccc34)CCCO5)CN2C(=O)[C@H]1NC(=O)OC(C)(C)C(F)(F)F` [Compound 6062, 1,1,1-trifluoro-2-methylpropan-2-yl((2R,6S,7R,9R,13aS,14aR,16aS,Z)-2-((3,4-dihydro-2H-pyrano[2,3-f]isoquinolin-7-yl)oxy)-7-ethyl-9-methyl-14a-(((1-methylcyclopropyl)sulfonyl)carbamoyl)-5,16-dioxo-1,2,3,5,6,7,8,9,10,11,13a,14,14a,15,16,16a-hexadecahydrocyclopropa[e]pyrrolo[1,2-a][1,4]diazacyclopentadecin-6-yl)carbamate], the EC50 in test [1] lay within 1.01 to 5 nM; in test [2], 0.51 to 1 nM.

For the molecule `CC[C@@H]1C[C@H](C)CC/C=C\[C@@H]2C[C@@]2(C(=O)NS(=O)(=O)C2(C)CC2)NC(=O)[C@@H]2C[C@@H](Oc3nc4c(c5ccccc35)CCCO4)CN2C(=O)[C@H]1NC(=O)OC(C)(C)C` [Compound 6064, tert-butyl ((2R,6S,7R,9R,13aS,14aR,16aS,Z)-2-((2,3-dihydro-1H-pyrano[2,3-c]isoquinolin-6-yl)oxy)-7-ethyl-9-methyl-14a-(((1-methylcyclopropyl)sulfonyl)carbamoyl)-5,16-dioxo-1,2,3,5,6,7,8,9,10,11,13a,14,14a,15,16,16a-hexadecahydrocyclopropa[e]pyrrolo[1,2-a][1,4]diazacyclopentadecin-6-yl)carbamate], the figures for the EC50 in test [1] and in test [2] were 0.51 to 1 nM and 0.1 to 0.5 nM, respectively.

With `C[C@@H]1CC/C=C\[C@@H]2C[C@@]2(C(=O)NS(=O)(=O)C2(CF)CC2)NC(=O)[C@@H]2C[C@@H](Oc3nccc4c5c(ccc34)CCCO5)CN2C(=O)[C@@H](NC(=O)OC(C)(C)C(F)(F)F)[C@H](C)C1` [Compound 6066, 1,1,1-trifluoro-2-methylpropan-2-yl((2R,6S,7R,9R,13aS,14aR,16aS,Z)-2-((3,4-dihydro-2H-pyrano[2,3-f]isoquinolin-7-yl)oxy)-14a-(((1-(fluoromethyl)cyclopropyl)sulfonyl)carbamoyl)-7,9-dimethyl-5,16-dioxo-1,2,3,5,6,7,8,9,10,11,13a,14,14a,15,16,16a-hexadecahydrocyclopropa[e]pyrrolo[1,2-a][1,4]diazacyclopentadecin-6-yl)carbamate], the half-maximal effective concentration (EC50) in test [1] and in test [2] was 1.01 to 5 nM each time.

On to `CC[C@@H]1C[C@H](C)CC/C=C\[C@@H]2C[C@@]2(C(=O)NS(=O)(=O)C2(CF)CC2)NC(=O)[C@@H]2C[C@@H](Oc3nc4c(c5ccccc35)CCCO4)CN2C(=O)[C@H]1NC(=O)OC(C)(C)C(F)(F)F` [Compound 6068, 1,1,1-trifluoro-2-methylpropan-2-yl((2R,6S,7R,9R,13aS,14aR,16aS,Z)-2-((2,3-dihydro-1H-pyrano[2,3-c]isoquinolin-6-yl)oxy)-7-ethyl-14a-(((1-(fluoromethyl)cyclopropyl)sulfonyl)carbamoyl)-9-methyl-5,16-dioxo-1,2,3,5,6,7,8,9,10,11,13a,14,14a,15,16,16a-hexadecahydrocyclopropa[e]pyrrolo[1,2-a][1,4]diazacyclopentadecin-6-yl)carbamate], for which the EC50 in test [1] was in the range of 1.01 to 5 nM; in test [2], 0.51 to 1 nM.

Take `CC[C@@H]1C[C@H](C)CC/C=C\[C@@H]2C[C@@]2(C(=O)NS(=O)(=O)C2(CF)CC2)NC(=O)[C@@H]2C[C@@H](Oc3nc4c(c5ccccc35)CCCO4)CN2C(=O)[C@H]1NC(=O)OC(C)(C)C(C)(F)F` [Compound 6070, 3,3-difluoro-2-methylbutan-2-yl((2R,6S,7R,9R,13aS,14aR,16aS,Z)-2-((2,3-dihydro-1H-pyrano[2,3-c]isoquinolin-6-yl)oxy)-7-ethyl-14a-(((1-(fluoromethyl)cyclopropyl)sulfonyl)carbamoyl)-9-methyl-5,16-dioxo-1,2,3,5,6,7,8,9,10,11,13a,14,14a,15,16,16a-hexadecahydrocyclopropa[e]pyrrolo[1,2-a][1,4]diazacyclopentadecin-6-yl)carbamate]: the EC50 fell in the range of 1.01 to 5 nM in test [1] and 0.51 to 1 nM in test [2].

As for `CC[C@@H]1C[C@H](C)CC/C=C\[C@@H]2C[C@@]2(C(=O)NS(=O)(=O)C2(CF)CC2)NC(=O)[C@@H]2C[C@@H](Oc3nc4c(c5ccccc35)CCCO4)CN2C(=O)[C@H]1NC(=O)OC(C)(C)C(F)F` [Compound 6072, 1,1-difluoro-2-methylpropan-2-yl((2R,6S,7R,9R,13aS,14aR,16aS,Z)-2-((2,3-dihydro-1H-pyrano[2,3-c]isoquinolin-6-yl)oxy)-7-ethyl-14a-(((1-(fluoromethyl)cyclopropyl)sulfonyl)carbamoyl)-9-methyl-5,16-dioxo-1,2,3,5,6,7,8,9,10,11,13a,14,14a,15,16,16a-hexadecahydrocyclopropa[e]pyrrolo[1,2-a][1,4]diazacyclopentadecin-6-yl)carbamate], the EC50 in test [1] is 1.01 to 5 nM; in test [2] it was 0.51 to 1 nM.

Regarding `C[C@@H]1CC/C=C\[C@@H]2C[C@@]2(C(=O)NS(=O)(=O)C2(CF)CC2)NC(=O)[C@@H]2C[C@@H](Oc3nc4c(c5ccccc35)CCCO4)CN2C(=O)[C@@H](NC(=O)OC(C)(C)C(F)F)[C@H](C)C1` [Compound 6074, 1,1-difluoro-2-methylpropan-2-yl((2R,6S,7R,9R,13aS,14aR,16aS,Z)-2-((2,3-dihydro-1H-pyrano[2,3-c]isoquinolin-6-yl)oxy)-14a-(((1-(fluoromethyl)cyclopropyl)sulfonyl)carbamoyl)-7,9-dimethyl-5,16-dioxo-1,2,3,5,6,7,8,9,10,11,13a,14,14a,15,16,16a-hexadecahydrocyclopropa[e]pyrrolo[1,2-a][1,4]diazacyclopentadecin-6-yl)carbamate], the EC50 in test [1] lay in the range of 0.51 to 1 nM; in test [2], 1.01 to 5 nM.

For the molecule `COc1ccc2c(O[C@@H]3C[C@H]4C(=O)N[C@]5(C(=O)NS(=O)(=O)C6(CF)CC6)C[C@H]5/C=C\CC[C@@H](C)C[C@@H](C)[C@H](NC(=O)OC(C)(C)C(F)(F)F)C(=O)N4C3)nc3c(c2c1)CCCO3` [Compound 6076, 1,1,1-trifluoro-2-methylpropan-2-yl((2R,6S,7R,9R,13aS,14aR,16aS,Z)-14a-(((1-(fluoromethyl)cyclopropyl)sulfonyl)carbamoyl)-2-((9-methoxy-2,3-dihydro-1H-pyrano[2,3-c]isoquinolin-6-yl)oxy)-7,9-dimethyl-5,16-dioxo-1,2,3,5,6,7,8,9,10,11,13a,14,14a,15,16,16a-hexadecahydrocyclopropa[e]pyrrolo[1,2-a][1,4]diazacyclopentadecin-6-yl)carbamate], the EC50 in test [1] and in test [2] was 1.01 to 5 nM each time.

Consider `COc1ccc2c(O[C@@H]3C[C@H]4C(=O)N[C@]5(C(=O)NS(=O)(=O)C6(CF)CC6)C[C@H]5/C=C\CC[C@@H](C)C[C@@H](C)[C@H](NC(=O)OC(C)(C)C(F)F)C(=O)N4C3)nc3c(c2c1)CCCO3` [Compound 6078, 1,1-difluoro-2-methylpropan-2-yl((2R,6S,7R,9R,13aS,14aR,16aS,Z)-14a-(((1-(fluoromethyl)cyclopropyl)sulfonyl)carbamoyl)-2-((9-methoxy-2,3-dihydro-1H-pyrano[2,3-c]isoquinolin-6-yl)oxy)-7,9-dimethyl-5,16-dioxo-1,2,3,5,6,7,8,9,10,11,13a,14,14a,15,16,16a-hexadecahydrocyclopropa[e]pyrrolo[1,2-a][1,4]diazacyclopentadecin-6-yl)carbamate], for which the EC50 in test [1] and in test [2] was 1.01 to 5 nM each time.
